In BindingDB's records for PubMed 30795990 (n/a, 2019) one finds IC50 data, which are given here for one compound.

This test deals with Cyclin-dependent kinase 11B (Homo sapiens) (UniProt P21127). In words: Inhibition of GST-tagged human recombinant CDK11 (1 to 795 residues) expressed in baculovirus expression system.

The structures appear in SMILES notation. Bounds are passed on as bounds.

Cyclin-dependent kinase 11B (Homo sapiens), sequence (P21127 whole entry, looked up, the tested form may be a part): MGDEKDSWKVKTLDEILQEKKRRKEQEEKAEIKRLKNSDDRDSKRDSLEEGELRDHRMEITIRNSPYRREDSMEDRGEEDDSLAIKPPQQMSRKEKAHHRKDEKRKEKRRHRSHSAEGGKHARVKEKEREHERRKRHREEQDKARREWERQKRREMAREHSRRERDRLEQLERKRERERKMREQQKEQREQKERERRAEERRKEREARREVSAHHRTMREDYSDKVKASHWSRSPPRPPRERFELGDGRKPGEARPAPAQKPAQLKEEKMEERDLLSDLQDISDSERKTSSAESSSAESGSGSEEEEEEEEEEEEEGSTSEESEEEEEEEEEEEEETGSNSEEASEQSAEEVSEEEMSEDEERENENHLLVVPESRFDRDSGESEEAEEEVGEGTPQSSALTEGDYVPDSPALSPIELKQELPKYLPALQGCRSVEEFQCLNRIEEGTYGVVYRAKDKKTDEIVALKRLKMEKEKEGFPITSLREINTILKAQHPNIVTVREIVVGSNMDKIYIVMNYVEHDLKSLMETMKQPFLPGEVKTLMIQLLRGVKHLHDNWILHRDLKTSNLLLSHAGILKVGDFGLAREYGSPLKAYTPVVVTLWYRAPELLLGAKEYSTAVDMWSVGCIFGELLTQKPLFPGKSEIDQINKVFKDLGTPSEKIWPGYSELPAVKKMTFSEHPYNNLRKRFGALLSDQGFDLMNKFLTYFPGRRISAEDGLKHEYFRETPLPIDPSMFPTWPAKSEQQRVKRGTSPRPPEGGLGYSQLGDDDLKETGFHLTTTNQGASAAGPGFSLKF

As usually defined, the IC50 is the concentration at which inhibition is half-maximal. `O=C(c1ccc2c(c1)OCCO2)C1CCN(c2ncnc3sccc23)CC1`: the IC50 is above 1000 nM.
